# According to publication PMC8185074, “Anchor extension: a structure-guided approach to design cyclic peptides targeting enzyme active sites” (Nature Communications, 2021):
# Where “and” joins values, the source holds several entries; their conditions need not be identical. Identical values can stand only once. Peptide text beside a SMILES is read from it.
# Molecular target: T1, HDAC6 (Homo sapiens, UniProt Q9UBN7)
# T1 construct: purchased Reaction Biology Corporation (assay run by the CRO)
# T1 sequence (Q9UBN7 1-1215): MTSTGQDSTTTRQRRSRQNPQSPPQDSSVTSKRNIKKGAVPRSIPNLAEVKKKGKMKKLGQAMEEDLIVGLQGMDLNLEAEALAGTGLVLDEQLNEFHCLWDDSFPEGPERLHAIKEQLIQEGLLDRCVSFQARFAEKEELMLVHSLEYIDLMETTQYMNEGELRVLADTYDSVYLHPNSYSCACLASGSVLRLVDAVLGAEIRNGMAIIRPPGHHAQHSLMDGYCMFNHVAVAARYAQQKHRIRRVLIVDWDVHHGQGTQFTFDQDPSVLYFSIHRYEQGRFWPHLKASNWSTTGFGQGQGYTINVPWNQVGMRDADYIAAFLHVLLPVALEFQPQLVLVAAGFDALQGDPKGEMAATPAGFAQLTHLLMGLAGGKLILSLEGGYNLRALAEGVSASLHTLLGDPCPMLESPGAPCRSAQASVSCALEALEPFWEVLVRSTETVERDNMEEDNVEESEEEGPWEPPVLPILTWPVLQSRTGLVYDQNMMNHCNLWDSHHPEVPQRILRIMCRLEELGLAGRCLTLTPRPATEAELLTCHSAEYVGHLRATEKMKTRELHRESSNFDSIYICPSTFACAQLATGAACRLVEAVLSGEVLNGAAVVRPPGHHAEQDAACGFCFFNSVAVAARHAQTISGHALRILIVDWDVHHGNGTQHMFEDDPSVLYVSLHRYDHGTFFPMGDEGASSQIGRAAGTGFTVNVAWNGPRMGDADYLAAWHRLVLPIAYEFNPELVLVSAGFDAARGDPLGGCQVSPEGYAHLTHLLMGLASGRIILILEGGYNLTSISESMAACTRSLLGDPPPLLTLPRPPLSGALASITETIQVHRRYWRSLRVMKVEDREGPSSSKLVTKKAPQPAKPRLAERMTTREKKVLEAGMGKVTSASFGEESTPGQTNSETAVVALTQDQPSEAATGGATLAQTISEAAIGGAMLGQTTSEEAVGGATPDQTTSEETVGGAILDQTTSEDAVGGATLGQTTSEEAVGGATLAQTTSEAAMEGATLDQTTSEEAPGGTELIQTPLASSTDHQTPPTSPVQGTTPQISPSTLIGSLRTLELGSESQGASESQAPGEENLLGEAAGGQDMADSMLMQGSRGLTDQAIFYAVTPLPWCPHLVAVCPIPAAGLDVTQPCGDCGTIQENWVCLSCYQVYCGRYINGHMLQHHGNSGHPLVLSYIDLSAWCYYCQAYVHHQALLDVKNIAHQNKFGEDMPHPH
# Assay: HDAC6 inhibition, full IC50 measurement (Reaction Biology; fluorogenic p53 peptide RHKK(Ac)AMC)
# Assay type: biochemical
# Settings: for IC50: figure legends, Supp. Tables 1 and 8, read-out: HDAC6 IC50
# Summary of the method: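 The reaction was a 1 h, 30 °C incubation of enzyme, acoustically added peptide and 50 μM p53-derived AMC substrate in pH 8.0 Tris buffer with NaCl, KCl, MgCl2, 1 mg/ml BSA and 1% DMSO. Duplicate values were averaged.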
SMILES,"HDAC6 activity raw data (signal) (Conc. 1.00E-05 M, t1)","HDAC6 activity raw data (signal) (Conc. 1.00E-05 M, t2)","HDAC6 activity raw data (signal) (Conc. 1.11E-06 M, t1)","HDAC6 activity raw data (signal) (Conc. 1.11E-06 M, t2)","HDAC6 activity raw data (signal) (Conc. 1.23E-07 M, t1)","HDAC6 activity raw data (signal) (Conc. 1.23E-07 M, t2)","HDAC6 activity raw data (signal) (Conc. 1.37E-08 M, t1)","HDAC6 activity raw data (signal) (Conc. 1.37E-08 M, t2)","HDAC6 activity raw data (signal) (Conc. 1.52E-09 M, t1)","HDAC6 activity raw data (signal) (Conc. 1.52E-09 M, t2)","HDAC6 activity raw data (signal) (Conc. 3.33E-06 M, t1)","HDAC6 activity raw data (signal) (Conc. 3.33E-06 M, t2)","HDAC6 activity raw data (signal) (Conc. 3.70E-07 M, t1)","HDAC6 activity raw data (signal) (Conc. 3.70E-07 M, t2)","HDAC6 activity raw data (signal) (Conc. 4.12E-08 M, t1)","HDAC6 activity raw data (signal) (Conc. 4.12E-08 M, t2)","HDAC6 activity raw data (signal) (Conc. 4.57E-09 M, t1)","HDAC6 activity raw data (signal) (Conc. 4.57E-09 M, t2)","HDAC6 activity raw data (signal) (Conc. 5.08E-10 M, t1)","HDAC6 activity raw data (signal) (Conc. 5.08E-10 M, t2)",further results
"N=C(N)NCCC[C@H]1NC(=O)[C@@H]2CCCN2C(=O)[C@H](CO)NC(=O)[C@@H](Cc2c[nH]cn2)NC(=O)[C@H](CCCCCS)NC(=O)[C@H](CCCCN)NC(=O)[C@H](Cc2ccc(O)cc2)NC(=O)[C@H]2CCCN2C(=O)[C@@H](CCC(N)=O)NC1=O [des3.1.0, SHA-dHis-Ser-Pro-dArg-dGln-dPro-Tyr-Lys] (HELM PEPTIDE1{K.[O=C([C@H](CCCCCS)N[*:1])[*:2]].[dH].S.P.[dR].[dQ].[dP].Y}$PEPTIDE1,PEPTIDE1,1:R1-9:R2$$$V2.0)",11537,13038,76742,90822,159657,168002,160112,166776,119928,158551,37434,38190,143033,130317,144961,163766,147758,164399,111941,129043,
"N=C(N)NCCC[C@@H]1NC(=O)[C@@H](CCCNC(=N)N)NC(=O)[C@H]2CCCN2C(=O)[C@@H](Cc2c[nH]cn2)NC(=O)[C@H](Cc2ccc(O)cc2)NC(=O)[C@H](CCCCCS)NC(=O)[C@H](CCc2ccccc2)NC(=O)[C@@H](CO)NC(=O)[C@H](CC(=O)O)NC1=O [des3.3.1, SHA-Tyr-dHis-dPro-dArg-Arg-Asp-dSer-C27] (HELM PEPTIDE1{[O=C([C@H](CCCCCS)N[*:1])[*:2]].Y.[dH].[dP].[dR].R.D.[dS].[O=C([C@H](CCc1ccccc1)N[*:1])[*:2]]}$PEPTIDE1,PEPTIDE1,1:R1-9:R2$$$V2.0)",557,-139,10535,12694,31520,38979,82998,93685,115704,134545,4544,5827,20428,19976,50772,68185,115536,120171,151999,154121,
"N=C(N)NCCC[C@@H]1NC(=O)[C@H](Cc2c[nH]c3ccccc23)NC(=O)[C@H](CC(=O)O)NC(=O)[C@@H](CO)NC(=O)[C@H](Cc2c[nH]c3ccccc23)NC(=O)[C@H](CCCCCS)NC(=O)[C@H](CCC(N)=O)NC1=O [des4.1.0, SHA-Trp-dSer-Asp-Trp-Arg-Gln] (HELM PEPTIDE1{D.W.R.Q.[O=C([C@H](CCCCCS)N[*:1])[*:2]].W.[dS]}$PEPTIDE1,PEPTIDE1,1:R1-7:R2$$$V2.0)",7877,-8060,16871,12343,204372,163263,1871464,1633652,2518833,2655286,8242,-3634,49535,45420,772837,534957,2466106,2168070,2603168,2401605,
"CC(C)[C@@H]1NC(=O)[C@H](CCCNC(=N)N)NC(=O)[C@@H](CC(=O)O)NC(=O)[C@H](CO)NC(=O)[C@@H](CO)NC(=O)[C@@H](CCC(=O)O)NC(=O)[C@H](Cc2ccc(O)cc2)NC(=O)[C@H](CCCCCS)NC1=O [des4.2.0, SHA-Tyr-dGlu-dSer-Ser-dAsp-Arg-Val] (HELM PEPTIDE1{R.V.[O=C([C@H](CCCCCS)N[*:1])[*:2]].Y.[dE].[dS].S.[dD]}$PEPTIDE1,PEPTIDE1,1:R1-8:R2$$$V2.0)",-7055,-3082,103285,106610,299609,290391,820280,820159,1558048,1527304,43007,45218,181567,190636,459108,432840,1111578,1107939,1904356,1828745,selectivity for HDAC6 over HDAC8 (Supp. Table 8): 80 fold; selectivity for HDAC6 over HDACs1/2/3 (Supp. Table 8): > 10 fold; IC50: 0.0044 µM
"CCCC[C@H]1NC(=O)[C@H](Cc2ccccc2)NC(=O)[C@H](CCCCCS)NC(=O)[C@@H](CCCNC(=N)N)NC(=O)[C@H](CC(=O)O)NC(=O)[C@@H](CO)NC(=O)[C@@H](C)NC(=O)[C@H](CCCCN)NC1=O [des4.3.1, SHA-Phe-dNle-Lys-dAla-dSer-Asp-dArg] (HELM PEPTIDE1{D.[dR].[O=C([C@H](CCCCCS)N[*:1])[*:2]].F.[CCCC[C@@H](N[*:1])C(=O)[*:2]].K.[dA].[dS]}$PEPTIDE1,PEPTIDE1,1:R1-8:R2$$$V2.0)",5754,4634,10293,17466,97345,90888,307015,326589,510826,490649,6046,6920,48261,37034,179198,202702,433664,442171,531205,556727,6-Selectivity: fold potency for HDAC6 over HDAC2: 88.2 fold and 88 fold; IC50: 0.0171 µM
